# Assay results published in PubChem BioAssay AID2060511 (Molecular Pharmacology Branch, DTP, NCI, 2025).
# System: 422866-222-R5-J1-PDC spheroids with HUVEC/MSC, viability
# Assay: Anticancer human tumor 422866-222-R5-J1-PDC patient-derived pancreatic adenocarcinoma cell line growth inhibition [GQUAD]
# Details: for IC50: curve of first compound; for viability, T/C: stronger effect = lower value
# Excerpt: DNA G-quadruplex Stabilizer Agents in Combinations in Complex Spheroids
# A high-throughput screen of multi-cell type tumor spheroids was designed to identify active combinations of DNA G-quadruplex stabilizer agents and targeted small molecules. Complex spheroids include a stromal component modeled by human endothelial cells (HUVEC) and fibroblasts modeled by human mesenchymal stem cells (MSCs). The concentration ranges selected for each drug and investigational agent were based upon clinically achievable concentrations if the clinical Cmax of the agent was known.
# Compounds. The drugs and investigational agents: pidnarulex (CX-5461; NSC782164), APTO-253 (NSC789042), BRACO-19 (NSC847499), peposertib (NSC802822), ceralasertib (NSC780249), elimusertib (NSC800525), camonsertib (NSC841442), AZD-1390 (NSC803789), olaparib (NSC753686), talazoparib (NSC767125), ART-558 (NSC835418), sotorasib (NSC818433), MRTX-1133 (NSC836407), SN-38 (NSC673596), topotecan (NSC609699), etoposide (NSC141540), doxorubicin (NSC123127), gemcitabine (NSC613327), 5-fluorouracil (NSC19893), paclitaxel (NSC125973), vemurafenib (NSC761431), panobinostat (NSC761190), R-306465 (JNJ-16241199; NSC773264), adavosertib (NSC754352), TP-3654 (NSC805149), carboplatin (NSC241240), KSQ-4279 (NSC840948), and staurosporine (NSC755774) were obtained from the National Cancer Institute (NCI) Developmental Therapeutics Program Chemical Repository (34). The FDA-approved anticancer drug set is available from the NCI Developmental Therapeutics Program. […] The stock solutions were prepared in dimethyl sulfoxide (DMSO, Sigma-Aldrich, St. Louis, MO, cat. D2650) at 800-fold the tested concentration and stored at -70 degrees C prior to their use. All drugs and investigational agents were tested over a range starting from a high concentration at or near the clinical Cmax and decreasing in half-log increments. If the clinical Cmax for an agent had not been determined, the highest concentration tested was 10 microM.
# 2.3 Cell Culture. All cells were maintained in an incubator at 37 degrees C and 5% CO2 with 95% humidity. The PDC lines were cultured according to standard operating procedures established by the NCI PDMR. All PDCs were thawed and cultured in Matrigel-coated flasks prepared with a working solution of 1X Ham's F-12 nutrient mix, without supplementation (Invitrogen, cat. 11765054), 100 U/mL penicillin-streptomycin (Invitrogen, cat. 15140122), and 2.5% Matrigel (Corning Inc., cat. 354248) for the first three passages. The 857933-349-R-J2-PDC line was cultured in 6C/Colon 1B media, which includes advanced DMEM/F-12 (Thermo Fisher Scientific, cat. 12634028), 10 mM HEPES (Thermo Fisher Scientific, cat. 15630080), 1X GlutaMAX supplement (Thermo Fisher Scientific, cat. 35050061), 0.1 mg/mL primocin (InvivoGen, cat. ant-pm-2), 10% defined fetal bovine serum, heat inactivated (HyClone Laboratories Inc., cat. SH30070.03HI), 50% L-WRN conditioned media (ATCC, cat. CRL-3276), 1.25 mM N-Acetyl-L-cysteine (Sigma-Aldrich, cat. A9165), 10 mM nicotinamide (Sigma-Aldrich, cat. N0636), 1X B-27 supplement (Thermo Fisher Scientific, cat. 17504044), 1X N-2 supplement (Thermo Fisher Scientific, cat. 17502048), 10 microM Y-27632 dihydrochloride (Tocris Bioscience, cat. 1254), and 50 ng/mL human EGF recombinant protein (Thermo Fisher Scientific, cat. PHG0311). The 485176-168-R4-J1-PDC line was cultured in Panc media, which includes all 6C/Colon 1B media components plus 100 ng/mL human FGF-10 (Thermo Fisher Scientific, cat. 100-26), 500 nM SB-431542 (Selleckchem, cat. S1067), and gastrin (Tocris, cat. 3006).
# […]
# 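Also: spheroids exposed to compounds for seven days before reading.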
# 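For viability, T/C in this document: percent viability relative to DMSO vehicle control taken as 100%.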
compound,measurement,setting,value
CC(C)n1c(=O)n(C)c2cnc3cc(F)c(-c4ccc(OCCCN5CCCCC5)nc4)cc3c21 + Cc1[nH]c2ccc(F)cc2c1-c1nc2c3cccnc3c3ncccc3c2[nH]1,IC50,second compound 0.0316 µM,> 10 µM
same,IC50,second compound 0.1 µM,> 10 µM
same,IC50,second compound 0.316 µM,> 10 µM
same,IC50,second compound 1 µM,> 10 µM
same,IC50,second compound 3.16 µM,> 10 µM
same,IC50,second compound 10 µM,> 10 µM
same,"viability, T/C","second compound 0.0316 µM, first compound 0.0316 µM",86.9%
same,"viability, T/C","second compound 0.0316 µM, first compound 0.1 µM",99.4%
same,"viability, T/C","second compound 0.0316 µM, first compound 0.316 µM",94%
same,"viability, T/C","second compound 0.0316 µM, first compound 1 µM",91.1%
same,"viability, T/C","second compound 0.0316 µM, first compound 3.16 µM",89.2%
same,"viability, T/C","second compound 0.0316 µM, first compound 10 µM",52%
same,"viability, T/C","second compound 0.1 µM, first compound 0.0316 µM",99.4%
same,"viability, T/C","second compound 0.1 µM, first compound 0.1 µM",114%
same,"viability, T/C","second compound 0.1 µM, first compound 0.316 µM",112%
same,"viability, T/C","second compound 0.1 µM, first compound 1 µM",83.2%
same,"viability, T/C","second compound 0.1 µM, first compound 3.16 µM",113%
same,"viability, T/C","second compound 0.1 µM, first compound 10 µM",73.5%
same,"viability, T/C","second compound 0.316 µM, first compound 0.0316 µM",93.8%
same,"viability, T/C","second compound 0.316 µM, first compound 0.1 µM",90.6%
same,"viability, T/C","second compound 0.316 µM, first compound 0.316 µM",102%
same,"viability, T/C","second compound 0.316 µM, first compound 1 µM",92.1%
same,"viability, T/C","second compound 0.316 µM, first compound 3.16 µM",92.2%
same,"viability, T/C","second compound 0.316 µM, first compound 10 µM",68.5%
same,"viability, T/C","second compound 1 µM, first compound 0.0316 µM",95.4%
same,"viability, T/C","second compound 1 µM, first compound 0.1 µM",89.2%
same,"viability, T/C","second compound 1 µM, first compound 0.316 µM",91.3%
same,"viability, T/C","second compound 1 µM, first compound 1 µM",91.9%
same,"viability, T/C","second compound 1 µM, first compound 3.16 µM",117%
same,"viability, T/C","second compound 1 µM, first compound 10 µM",64.9%
same,"viability, T/C","second compound 3.16 µM, first compound 0.0316 µM",78.3%
same,"viability, T/C","second compound 3.16 µM, first compound 0.1 µM",88.2%
same,"viability, T/C","second compound 3.16 µM, first compound 0.316 µM",105%
same,"viability, T/C","second compound 3.16 µM, first compound 1 µM",94.7%
same,"viability, T/C","second compound 3.16 µM, first compound 3.16 µM",98%
same,"viability, T/C","second compound 3.16 µM, first compound 10 µM",63.9%
same,"viability, T/C","second compound 10 µM, first compound 0.0316 µM",73%
same,"viability, T/C","second compound 10 µM, first compound 0.1 µM",95.1%
same,"viability, T/C","second compound 10 µM, first compound 0.316 µM",91.7%
same,"viability, T/C","second compound 10 µM, first compound 1 µM",80.9%
same,"viability, T/C","second compound 10 µM, first compound 3.16 µM",85.2%
same,"viability, T/C","second compound 10 µM, first compound 10 µM",54.5%
